Columns and labels:
Format in all cases: cell-based
[1] = test system: E. coli 7MP producing Class A and Class C beta-lactamase enzymes; test: Time kill study against E. coli 7MP; conditions: for Effect on bacterial count (in words): alone or in combination
Description: (§1) In general, the antibacterial activity of compositions according to invention was studied by performing time kill studies. In a typical time kill study, the freshly grown cultures were diluted to the required cell density (initial starting inoculum) in cation adjusted Muller Hinton broth medium (BD, USA). The antibacterial agents (either alone or in combination) at the required concentrations were added into the culture-containing medium. The samples were incubated under shaking condition (120 rpm) at 37° C. Enumeration of viable bacterial count was done every 2 hour by diluting in normal saline and plating on to the Tryptic Soya Agar plates (BD, USA). The plates were incubated for 24 hours to arrive at a viable bacterial count. The results are expressed in terms of log10 CFU/ml. In general, the decrease of 1 log10 CFU/ml corresponds to 90% killing of bacteria. Similarly, 2 log10 CFU/ml reductions indicates to 99% killing of bacteria and 3 log10 CFU/ml reductions is equal to 99.9% killing of bacteria.

[2] = test system: A. baumanni 13301 producing Carbapenem hydrolysing beta-lactamase enzymes; test: Time kill study against A. baumanni 13301
Description: as §1

[3] = test system: K. pneumoniae B-88 producing metallo beta-lactamase enzymes; test: Time kill study against K. pneumoniae B-88
Description: as §1

CC(C)(O/N=C(\C(=O)N[C@@H]1C(=O)N2C(C(=O)[O-])=C(C[N+]3(CCNC(=O)c4ccc(O)c(O)c4Cl)CCCC3)CS[C@H]12)c1csc(N)n1)C(=O)O [Compound of Formula (I), (6R,7R)-7-[(2Z)-2-(2-amino-1,3-thiazol-4-yl)-2-{[(2-carboxypropan-2-yl)oxy]imino}acetamido]-3-({1-[2-(2-chloro-3,4-dihydroxybenzamido)ethyl]pyrrolidin-1-ium-1-yl}methyl)-8-oxo-5-thia-1-azabicyclo[4.2.0]oct-2-ene-2-carboxylate]
Change in Log10 CFU/ml over 0 hour count after 24 hours ([1]; Table 2, 0.25 mcg/ml alone): 2.12 Log10 CFU/ml | Change in Log10 CFU/ml over 0 hour count after 24 hours ([1]; Table 2, 0.5 mcg/ml alone): 2.12 Log10 CFU/ml | Bacterial count (Log10 CFU/ml) 2 hours ([1]; Table 2, 0.25 mcg/ml alone): 7.60 Log10 CFU/ml | Bacterial count (Log10 CFU/ml) 2 hours ([1]; Table 2, 0.5 mcg/ml alone): 7.18 Log10 CFU/ml | Bacterial count (Log10 CFU/ml) 4 hours ([1]; Table 2, 0.25 mcg/ml alone): 9.11 Log10 CFU/ml | Bacterial count (Log10 CFU/ml) 4 hours ([1]; Table 2, 0.5 mcg/ml alone): 7.74 Log10 CFU/ml | Bacterial count (Log10 CFU/ml) 6 hours ([1]; Table 2, 0.25 mcg/ml alone): 9.20 Log10 CFU/ml | Bacterial count (Log10 CFU/ml) 6 hours ([1]; Table 2, 0.5 mcg/ml alone): 9.18 Log10 CFU/ml | Bacterial count (Log10 CFU/ml) 24 hours ([1]; Table 2, 0.25 mcg/ml alone): 9.20 Log10 CFU/ml | Bacterial count (Log10 CFU/ml) 24 hours ([1]; Table 2, 0.5 mcg/ml alone): 9.20 Log10 CFU/ml | Change in Log10 CFU/ml over 0 hour count after 8 hours ([1]; Table 5, 1 mcg/ml alone): 1.57 Log10 CFU/ml | Bacterial count (Log10 CFU/ml) 2 hours ([1]; Table 5, 1 mcg/ml alone): 7.15 Log10 CFU/ml | Bacterial count (Log10 CFU/ml) 4 hours ([1]; Table 5, 1 mcg/ml alone): 6.60 Log10 CFU/ml | Bacterial count (Log10 CFU/ml) 6 hours ([1]; Table 5, 1 mcg/ml alone): 7.90 Log10 CFU/ml | Bacterial count (Log10 CFU/ml) 8 hours ([1]; Table 5, 8 hours, 1 mcg/ml alone): 8.65 Log10 CFU/ml | Effect on bacterial count (in words) ([1]; summary of Table 2): could not reduce the bacterial count | Effect on bacterial count (in words) ([1]; summary of Table 5, throughout the duration of the study): did not reduce the bacterial count | Bacterial count (Log10 CFU/ml) 0 hours ([2]; 0 hours, 4 mcg/ml alone): 6.88 Log10 CFU/ml | Change in Log10 CFU/ml over 0 hour count after 24 hours ([2]; 4 mcg/ml alone): 2.22 Log10 CFU/ml | Bacterial count (Log10 CFU/ml) 2 hours ([2]; 2 hours, 4 mcg/ml alone): 4.85 Log10 CFU/ml | Bacterial count (Log10 CFU/ml) 4 hours ([2]; 4 hours, 4 mcg/ml alone): 4.02 Log10 CFU/ml | Bacterial count (Log10 CFU/ml) 6 hours ([2]; 6 hours, 4 mcg/ml alone): 5.18 Log10 CFU/ml | Bacterial count (Log10 CFU/ml) 8 hours ([2]; 8 hours, 4 mcg/ml alone): 7.5 Log10 CFU/ml | Bacterial count (Log10 CFU/ml) 24 hours ([2]; 24 hours, 4 mcg/ml alone): 9.10 Log10 CFU/ml | Effect on bacterial count (in words) ([2]; summary of Table 3, alone or in combination): could not reduce the bacterial count | Bacterial count (Log10 CFU/ml) 0 hours ([3]; 0.25 mcg/ml alone): 7.28 Log10 CFU/ml | Bacterial count (Log10 CFU/ml) 0 hours ([3]; 0.5 mcg/ml alone): 7.28 Log10 CFU/ml | Change in Log10 CFU/ml over 0 hour count after 24 hours ([3]; 0.25 mcg/ml alone): −0.47 Log10 CFU/ml | Change in Log10 CFU/ml over 0 hour count after 24 hours ([3]; 0.5 mcg/ml alone): −0.98 Log10 CFU/ml | Bacterial count (Log10 CFU/ml) 2 hours ([3]; 0.25 mcg/ml alone): 6.74 Log10 CFU/ml | Bacterial count (Log10 CFU/ml) 2 hours ([3]; 0.5 mcg/ml alone): 6.18 Log10 CFU/ml | Bacterial count (Log10 CFU/ml) 4 hours ([3]; 4 hours, 0.5 mcg/ml alone): 5.85 Log10 CFU/ml | Bacterial count (Log10 CFU/ml) 6 hours ([3]; 0.25 mcg/ml alone): 6.70 Log10 CFU/ml | Bacterial count (Log10 CFU/ml) 6 hours ([3]; 0.5 mcg/ml alone): 6.30 Log10 CFU/ml | Bacterial count (Log10 CFU/ml) 24 hours ([3]; 0.25 mcg/ml alone): 6.81 Log10 CFU/ml | Bacterial count (Log10 CFU/ml) 24 hours ([3]; 0.5 mcg/ml alone): 6.30 Log10 CFU/ml | Effect on bacterial count (in words) ([3]; summary of Table 1, alone or in combination): could not reduce the bacterial count

Source: US20200316083A1, “ANTIBACTERIAL COMPOSITIONS” (WOCKHARDT LIMITED, priority 2016, published 2020)
